The source of these data is patent publication US6407306B1, “Process for extracting carotenes from carotene-containing materials” (priority 2000, dated 2002).

A short description of data set [1]: Solubility of extractant in dense carbon dioxide. Type of data set: physicochemical. The following applies: 70° C. and 120 bar.
For data set [2] the following is noted: cited from earlier work; for solubility relative to β-carotene: qualitative comparison.

Regarding `O=CN1CCOCC1` [4-formylmorpholine], in data set [1], the “solubility in carbon dioxide” value was 9 wt. %.
On to `CC1=CCCC(C)(C)C1/C=C/C(C)=C/C=C/C(C)=C/C=C/C=C(C)/C=C/C=C(C)/C=C/C1=C(C)CCCC1(C)C` (stereo not drawn) [α-Carotene], for which, in data set [2], the “solubility relative to β-carotene” value is reported as “more readily soluble than β-carotene”.
In the case of `CC1=C(/C=C/C(C)=C/C=C/C(C)=C/C=C/C=C(C)/C=C/C=C(C)/C=C/C2=C(C)CCCC2(C)C)C(C)(C)CCC1` [β-Carotene], in data set [2] (benzene, 19° C.), the solubility in benzene is 0.35 grams per 100 cm^3 of solvent. Besides, in data set [2] (carbon disulfide, 19° C.), the “solubility in carbon disulfide” value is recorded as 5.5 grams per 100 cm^3 of solvent. Besides, the solubility in ethanol in data set [2] (ethanol, 19° C.) is 0.008 grams per 100 cm^3 of solvent. Also, the “solubility in petroleum ether” value in data set [2] (petroleum ether, 19° C.) is 0.1 grams per 100 cm^3 of solvent.
Take `CC(C)=CCC/C(C)=C/C=C/C(C)=C/C=C/C(C)=C/C=C/C=C(C)/C=C/C=C(C)/C=C/C1=C(C)CCCC1(C)C` [γ-Carotene]: the “solubility relative to β-carotene” value in data set [2] is listed as “more readily soluble than β-carotene”.
